Results from patent US9738634B2, “Heterocyclic amide compound and herbicide” (SYNGENTA PARTICIPATIONS AG, priority 2013, dated 2017).

Legend:
Assay type in all cases: in vivo
green foxtail [1] = experiment: Test Example 3: weedkilling efficacy through soil treatment; E: green foxtail; details: treatment dosage 315 g/ha
In short: (§1)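 Crop and weed responses were judged three weeks after a uniform surface spray of the water-diluted emulsion at the given g/ha rate. Seeds sat beneath about 1.5 cm of sterilized diluvial soil, and boxes stood in a greenhouse at 25 to 30° C.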

transplanted rice = experiment: Test Example 1: preemergent weed treatment in the submerged state, effect on crop; a: transplanted rice; details: treatment dosage 252 g/ha
In short: (§2)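 Emulsion diluted with water to the specified per-hectare dosage is applied onto flood water (4 cm) over alluvial soil on the sowing day, with barnyard grass, bulrush and pondweed seeded and rice (2.5-leaf) transplanted; plants grow at 25–30 °C and are rated at 3 weeks.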

common wind-grass [2] = experiment: Test Example 3: weedkilling efficacy through soil treatment; J: common wind-grass; details: treatment dosage 315 g/ha
In short: as §1

rapeseed [3] = experiment: Test Example 4: foliar treatment, effect on crop; g: rapeseed; details: treatment dosage 315 g/ha
In short: (§3)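 Seeds are spot-sown into sterilized diluvial soil and covered with about 1.5 cm of soil. After 14 days' greenhouse growth at 25 to 30° C, plants are sprayed on stems and leaves with diluted emulsion at the stated g/ha rate, then scored at 3 weeks.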

green foxtail [4] = experiment: Test Example 4: weedkilling efficacy by foliar treatment; E: green foxtail; details: treatment dosage 315 g/ha
In short: as §3

oval-leafed pondweed [5] = experiment: Test Example 1: weedkilling efficacy, preemergent weed treatment in the submerged state; C: oval-leafed pondweed; details: treatment dosage 252 g/ha
In short: as §2

redroot pigweed [6] = experiment: Test Example 3: weedkilling efficacy through soil treatment; L: redroot pigweed; details: treatment dosage 315 g/ha
In short: as §1

rapeseed [7] = experiment: Test Example 3: soil treatment, effect on crop; g: rapeseed; details: treatment dosage 315 g/ha
In short: as §1

barnyard grass [8] = experiment: Test Example 3: weedkilling efficacy through soil treatment; F: barnyard grass; details: treatment dosage 315 g/ha
In short: as §1

black-grass [9] = experiment: Test Example 3: weedkilling efficacy through soil treatment; H: black-grass; details: treatment dosage 315 g/ha
In short: as §1

directly sown rice [10] = experiment: Test Example 3: soil treatment, effect on crop; b: directly sown rice; details: treatment dosage 315 g/ha
In short: as §1

catchweed [11] = experiment: Test Example 4: weedkilling efficacy by foliar treatment; O: catchweed; details: treatment dosage 315 g/ha
In short: as §3

Indian mallow [12] = experiment: Test Example 3: weedkilling efficacy through soil treatment; K: Indian mallow; details: treatment dosage 315 g/ha
In short: as §1

Indian mallow [13] = experiment: Test Example 4: weedkilling efficacy by foliar treatment; K: Indian mallow; details: treatment dosage 315 g/ha
In short: as §3

bulrush [14] = experiment: Test Example 1: weedkilling efficacy, preemergent weed treatment in the submerged state; B: bulrush; details: treatment dosage 252 g/ha
In short: as §2

wheat [15] = experiment: Test Example 3: soil treatment, effect on crop; e: wheat; details: treatment dosage 315 g/ha
In short: as §1

corn [16] = experiment: Test Example 4: foliar treatment, effect on crop; c: corn; details: treatment dosage 315 g/ha
In short: as §3

barnyard grass [17] = experiment: Test Example 2: weedkilling efficacy, growth period weed treatment in the submerged state; A: barnyard grass; details: treatment dosage 252 g/ha
In short: (§4)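 First, alluvial soil in pots is flooded to 4 cm and mixed seed is sown. Next, plants grow in a greenhouse at 25 to 30° C until the 1-2 leaf stage. Then diluted emulsion is applied onto the water surface at the given g/ha rate, and injury is assessed after 3 weeks.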

barnyard grass [18] = experiment: Test Example 4: weedkilling efficacy by foliar treatment; F: barnyard grass; details: treatment dosage 315 g/ha
In short: as §3

Italian ryegrass [19] = experiment: Test Example 4: weedkilling efficacy by foliar treatment; I: Italian ryegrass; details: treatment dosage 315 g/ha
In short: as §3

redroot pigweed [20] = experiment: Test Example 4: weedkilling efficacy by foliar treatment; L: redroot pigweed; details: treatment dosage 315 g/ha
In short: as §3

bulrush [21] = experiment: Test Example 2: weedkilling efficacy, growth period weed treatment in the submerged state; B: bulrush; details: treatment dosage 252 g/ha
In short: as §4

oval-leafed pondweed [22] = experiment: Test Example 2: weedkilling efficacy, growth period weed treatment in the submerged state; C: oval-leafed pondweed; details: treatment dosage 252 g/ha
In short: as §4

Italian ryegrass [23] = experiment: Test Example 3: weedkilling efficacy through soil treatment; I: Italian ryegrass; details: treatment dosage 315 g/ha
In short: as §1

crabgrass [24] = experiment: Test Example 4: weedkilling efficacy by foliar treatment; D: crabgrass; details: treatment dosage 315 g/ha
In short: as §3

beet [25] = experiment: Test Example 3: soil treatment, effect on crop; f: beet; details: treatment dosage 315 g/ha
In short: as §1

birds-eye speedwell [26] = experiment: Test Example 3: weedkilling efficacy through soil treatment; p: birds-eye speedwell; details: treatment dosage 315 g/ha
In short: as §1

soybean [27] = experiment: Test Example 4: foliar treatment, effect on crop; d: soybean; details: treatment dosage 315 g/ha
In short: as §3

crabgrass [28] = experiment: Test Example 3: weedkilling efficacy through soil treatment; D: crabgrass; details: treatment dosage 315 g/ha
In short: as §1

wild oat [29] = experiment: Test Example 4: weedkilling efficacy by foliar treatment; G: wild oat; details: treatment dosage 315 g/ha
In short: as §3

chickweed [30] = experiment: Test Example 3: weedkilling efficacy through soil treatment; N: chickweed; details: treatment dosage 315 g/ha
In short: as §1

barnyard grass [31] = experiment: Test Example 1: weedkilling efficacy, preemergent weed treatment in the submerged state; A: barnyard grass; details: treatment dosage 252 g/ha
In short: as §2

catchweed [32] = experiment: Test Example 3: weedkilling efficacy through soil treatment; O: catchweed; details: treatment dosage 315 g/ha
In short: as §1

beet [33] = experiment: Test Example 4: foliar treatment, effect on crop; f: beet; details: treatment dosage 315 g/ha
In short: as §3

wheat [34] = experiment: Test Example 4: foliar treatment, effect on crop; e: wheat; details: treatment dosage 315 g/ha
In short: as §3

birds-eye speedwell [35] = experiment: Test Example 4: weedkilling efficacy by foliar treatment; p: birds-eye speedwell; details: treatment dosage 315 g/ha
In short: as §3

wild oat [36] = experiment: Test Example 3: weedkilling efficacy through soil treatment; G: wild oat; details: treatment dosage 315 g/ha
In short: as §1

black-grass [37] = experiment: Test Example 4: weedkilling efficacy by foliar treatment; H: black-grass; details: treatment dosage 315 g/ha
In short: as §3

chickweed [38] = experiment: Test Example 4: weedkilling efficacy by foliar treatment; N: chickweed; details: treatment dosage 315 g/ha
In short: as §3

soybean [39] = experiment: Test Example 3: soil treatment, effect on crop; d: soybean; details: treatment dosage 315 g/ha
In short: as §1

common wind-grass [40] = experiment: Test Example 4: weedkilling efficacy by foliar treatment; J: common wind-grass; details: treatment dosage 315 g/ha
In short: as §3

corn [41] = experiment: Test Example 3: soil treatment, effect on crop; c: corn; details: treatment dosage 315 g/ha
In short: as §1

directly sown rice [42] = experiment: Test Example 4: foliar treatment, effect on crop; b: directly sown rice; details: treatment dosage 315 g/ha
In short: as §3

## CC1=C(c2ccccc2)C(=O)N(C(C)(C)C(=O)Nc2cc(C)cnc2Cl)CO1 [B-3-04]
Green foxtail [1]
  E (green foxtail) weedkilling efficacy grade: 5 (weed kill ratio 90% or more, (practically complete withering))
Transplanted rice
  a (transplanted rice) effect on crop grade: 0 (weed kill ratio 5% or less (practically no effect))
Common wind-grass [2]
  J (common wind-grass) weedkilling efficacy grade: 5 (weed kill ratio 90% or more, (practically complete withering))
Rapeseed [3]
  g (rapeseed) effect on crop grade: 1 (weed kill ratio 5% or more, less than 20%)
Green foxtail [4]
  E (green foxtail) weedkilling efficacy grade: 4 (weed kill ratio 70% or more, less than 90%)
oval-leafed pondweed [5]
  C (oval-leafed pondweed) weedkilling efficacy grade: 4 (weed kill ratio 70% or more, less than 90%)
Redroot pigweed [6]
  L (redroot pigweed) weedkilling efficacy grade: 0 (weed kill ratio 5% or less (practically no effect))
Rapeseed [7]
  g (rapeseed) effect on crop grade: 0 (weed kill ratio 5% or less (practically no effect))
Barnyard grass [8]
  F (barnyard grass) weedkilling efficacy grade: 5 (weed kill ratio 90% or more, (practically complete withering))
black-grass [9]
  H (black-grass) weedkilling efficacy grade: 4 (weed kill ratio 70% or more, less than 90%)
Directly sown rice [10]
  b (directly sown rice) effect on crop grade: 1 (weed kill ratio 5% or more, less than 20%)
Catchweed [11]
  O (catchweed) weedkilling efficacy grade: 2 (weed kill ratio 20% or more, less than 40%)
Indian mallow [12]
  K (Indian mallow) weedkilling efficacy grade: 0 (weed kill ratio 5% or less (practically no effect))
Indian mallow [13]
  K (Indian mallow) weedkilling efficacy grade: 2 (weed kill ratio 20% or more, less than 40%)
Bulrush [14]
  B (bulrush) weedkilling efficacy grade: 5 (weed kill ratio 90% or more, (practically complete withering))
Wheat [15]
  e (wheat) effect on crop grade: 0 (weed kill ratio 5% or less (practically no effect))
Corn [16]
  c (corn) effect on crop grade: 0 (weed kill ratio 5% or less (practically no effect))
Barnyard grass [17]
  A (barnyard grass) weedkilling efficacy grade: 4 (weed kill ratio 70% or more, less than 90%)
Barnyard grass [18]
  F (barnyard grass) weedkilling efficacy grade: 3 (weed kill ratio 40% or more, less than 70%)
Italian ryegrass [19]
  I (Italian ryegrass) weedkilling efficacy grade: 3 (weed kill ratio 40% or more, less than 70%)
Redroot pigweed [20]
  L (redroot pigweed) weedkilling efficacy grade: 0 (weed kill ratio 5% or less (practically no effect))
Bulrush [21]
  B (bulrush) weedkilling efficacy grade: 4 (weed kill ratio 70% or more, less than 90%)
oval-leafed pondweed [22]
  C (oval-leafed pondweed) weedkilling efficacy grade: 3 (weed kill ratio 40% or more, less than 70%)
Italian ryegrass [23]
  I (Italian ryegrass) weedkilling efficacy grade: 5 (weed kill ratio 90% or more, (practically complete withering))
Crabgrass [24]
  D (crabgrass) weedkilling efficacy grade: 3 (weed kill ratio 40% or more, less than 70%)
Beet [25]
  f (beet) effect on crop grade: 1 (weed kill ratio 5% or more, less than 20%)
birds-eye speedwell [26]
  P (birds-eye speedwell) weedkilling efficacy grade: 4 (weed kill ratio 70% or more, less than 90%)
Soybean [27]
  d (soybean) effect on crop grade: 0 (weed kill ratio 5% or less (practically no effect))
Crabgrass [28]
  D (crabgrass) weedkilling efficacy grade: 5 (weed kill ratio 90% or more, (practically complete withering))
Wild oat [29]
  G (wild oat) weedkilling efficacy grade: 3 (weed kill ratio 40% or more, less than 70%)
Chickweed [30]
  N (chickweed) weedkilling efficacy grade: 3 (weed kill ratio 40% or more, less than 70%)
Barnyard grass [31]
  A (barnyard grass) weedkilling efficacy grade: 5 (weed kill ratio 90% or more, (practically complete withering))
Catchweed [32]
  O (catchweed) weedkilling efficacy grade: 2 (weed kill ratio 20% or more, less than 40%)
Beet [33]
  f (beet) effect on crop grade: 2 (weed kill ratio 20% or more, less than 40%)
Wheat [34]
  e (wheat) effect on crop grade: 0 (weed kill ratio 5% or less (practically no effect))
birds-eye speedwell [35]
  P (birds-eye speedwell) weedkilling efficacy grade: 3 (weed kill ratio 40% or more, less than 70%)
Wild oat [36]
  G (wild oat) weedkilling efficacy grade: 3 (weed kill ratio 40% or more, less than 70%)
black-grass [37]
  H (black-grass) weedkilling efficacy grade: 3 (weed kill ratio 40% or more, less than 70%)
Chickweed [38]
  N (chickweed) weedkilling efficacy grade: 3 (weed kill ratio 40% or more, less than 70%)
Soybean [39]
  d (soybean) effect on crop grade: 0 (weed kill ratio 5% or less (practically no effect))
Common wind-grass [40]
  J (common wind-grass) weedkilling efficacy grade: 4 (weed kill ratio 70% or more, less than 90%)
Corn [41]
  c (corn) effect on crop grade: 0 (weed kill ratio 5% or less (practically no effect))
Directly sown rice [42]
  b (directly sown rice) effect on crop grade: 0 (weed kill ratio 5% or less (practically no effect))
